Values after ≈ are worked out from the molar mass of the structure shown.
Experiments:
CHK-1 kinase = CHK-1 kinase (Homo sapiens (Human), UniProt O14757); experiment: CHK-1 % inhibition kinase assay (TR-FRET); assay type: biochemical; conditions: ATP 15 μM; for inhibition at 0.03 µM / inhibition at 0.3 µM: CHK1 enzyme; for inhibition at 0.03 µM: compound 30 nM; for inhibition at 0.3 µM: compound 300 nM; for IC50: TR-FRET, read-out: CHK1 IC50
Procedure: Inhibition of CHK-1 kinase or percent inhibition at defined concentrations was determined by TR-FRET assay. Kinase reactions were performed in a 20 μL volume in low-volume 384-well plates (Cat #Corning 4511). The concentration of substrate Fluorescein-CREBtide was maintained at 0.2 μM in the assay, and the kinase reaction buffer consisted of 50 mM HEPES pH 7.5, 0.01% BRIJ-35, 10 mM MgCl2, 1 mM EGTA. Serially diluted compounds (3-fold) in DMSO (0.5% in final reaction) were incubated with cocktail of CHK-1 kinase (6 nM; Cat #PR3959B, ThermoFisher), Fluorescein-CREBtide (0.2 μM; Cat #PV3508, ThermoFisher), ATP (15 μM; Cat #A1852, Sigma), and kinase reaction buffer. After 1 hour kinase reactions at room temperature, 10 μL of Detection mix (8 nM LanthaScreen® Tb-CREB [pSer133] antibody, Cat #PV3542, ThermoFisher with 20 mM EDTA in TR-FRET Buffer, Cat #PV3574, ThermoFisher) was added, and the plate was read with a plate reader (Synergy™ NEO; Biotek) for TR-FRET.
The resulting TR-FRET emission ratio was used to calculate the percent inhibition by normalizing to the control using the following formula: […]

[1] = Microsomal stability assay, human liver microsome; assay type: in vitro ADME; conditions: liver microsomes, pH 7.4, 0.2 mg/mL, 1 μM compound, 37° C., read-out: Clint HLM
Procedure: (§1) Incubation mixture contained 0.2 mg/mL microsomes, 1 mmol NADPH, and test compound at 1 μM in 100 mmol potassium phosphate buffer at pH 7.4. The mixtures were incubated at 37° C. for 5, 15, and 30 minutes. Aliquots of the mixtures were taken at 0, 5, 15 and 30 minutes and quenched with chilled Acetonitrile:Methanol (50:50) containing internal standard. Following completion of incubation, samples were centrifuged at 4,000 rpm at 4° C. The supernatant was analyzed by LC-MS/MS and half-life, as well as intrinsic clearance (Clint), were calculated.

[2] = Microsomal stability assay, mouse liver microsome; assay type: in vitro ADME; conditions: liver microsomes, pH 7.4, 0.2 mg/mL, 1 μM compound, 37° C., read-out: Clint MLM
Procedure: as §1

[3] = Microsomal stability assay, rat liver microsome; assay type: in vitro ADME; conditions: liver microsomes, pH 7.4, 0.2 mg/mL, 1 μM compound, 37° C., read-out: Clint RLM
Procedure: as §1

[4] = Kinetic solubility assay (nephelometry); conditions: PBS, 37 °C, pH 7.4, aqueous buffer, kinetic from dmso stock
Procedure: Test articles were serially diluted in DMSO from concentration range of 10 mM to 0.078 mM in 96 well v-bottom dilution plate (#3363, Corning). 1 μL of test article from each well was transferred to 96 well flat bottom clear plates (#655101, Greiner) containing 99 μL of PBS at pH-7.4, which makes the test drug final concentration range from 100 μM to 0.78 μM. Samples were incubated for 1 hour at 37° C. followed by measurement of light scattering at 625 nm with a laser based micro plate Nephelometer (Nephlostar Plus, BMG Labtech). Solubility concentration (μM) was then calculated by segmental regression with Neplometer as Readout.

Sequence of CHK-1 kinase (O14757 whole entry): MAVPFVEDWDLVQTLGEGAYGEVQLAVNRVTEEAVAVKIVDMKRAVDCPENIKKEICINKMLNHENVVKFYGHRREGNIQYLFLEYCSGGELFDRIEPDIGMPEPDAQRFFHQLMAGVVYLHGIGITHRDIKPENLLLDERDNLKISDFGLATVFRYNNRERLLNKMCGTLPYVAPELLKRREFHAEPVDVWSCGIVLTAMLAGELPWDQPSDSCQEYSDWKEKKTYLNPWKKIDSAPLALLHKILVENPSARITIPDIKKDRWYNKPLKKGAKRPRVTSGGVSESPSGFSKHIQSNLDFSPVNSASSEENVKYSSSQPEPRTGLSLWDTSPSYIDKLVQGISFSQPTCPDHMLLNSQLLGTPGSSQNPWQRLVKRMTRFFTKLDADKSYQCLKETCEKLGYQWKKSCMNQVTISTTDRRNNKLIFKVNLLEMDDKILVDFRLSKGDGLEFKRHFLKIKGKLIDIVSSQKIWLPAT

| Structure (SMILES) | inhibition at 0.03 µM (CHK-1 kinase) | inhibition at 0.3 µM (CHK-1 kinase) | microsomal CLint at 1 μM [1] | microsomal CLint at 1 μM [2] | microsomal CLint at 1 μM [3] | solubility kinetic at 1 h [4] | IC50 (CHK-1 kinase) |
| --- | --- | --- | --- | --- | --- | --- | --- |
| N#Cc1cnc(Nc2cc(-c3ccccc3OCCN)on2)cn1 [Compound 1.7, 5-(5-(2-(2-aminoethoxy)phenyl)isoxazol-3-ylamino) pyrazine-2-carbonitrile] | 36% | 82% | 75 µL/min/mg | 114 µL/min/mg | 118 µL/min/mg | 39.2 µM (≈ 12.6 µg/mL) |  |
| N#Cc1cnc(Nc2cc(-c3ccccc3OC3CC4(CNC4)C3)on2)cn1 [Compound 1.21, 5-(5-(2-(2-azaspiro[3.3]heptan-6-yloxy)phenyl)isoxazol-3-ylamino) pyrazine-2-carbonitrile] | 78.7% | 95.5% | 20 µL/min/mg | 18 µL/min/mg | 37 µL/min/mg | 18.8 µM (≈ 7.04 µg/mL) |  |
| N#Cc1cnc(Nc2cc(-c3cc4ccccc4cc3OCC3CCNCC3)[nH]n2)cn1 [Compound 2.1, 5-(5-(3-(piperidin-4-ylmethoxy)naphthalen-2-yl)-1H-pyrazol-3-ylamino) pyrazine-2-carbonitrile] | 27% | 91% | 25 µL/min/mg | 101 µL/min/mg | 36 µL/min/mg | 34.7 µM (≈ 14.8 µg/mL) | 2.46 nM |
| N#Cc1cnc(Nc2cc(-c3ccccc3OCCCN)on2)cn1 [Compound 1.5, 5-(5-(2-(3-aminopropoxy)phenyl)isoxazol-3-ylamino) pyrazine-2-carbonitrile] | 63% | 89% | 78 µL/min/mg | 77 µL/min/mg | 70 µL/min/mg | 41.8 µM (≈ 14.1 µg/mL) | 7.82 nM |
| N#Cc1cnc(Nc2cc(-c3cc4ccccc4cc3OCCCN)[nH]n2)cn1 [Compound 2.7, 5-(5-(3-(3-aminopropoxy)naphthalen-2-yl)-1H-pyrazol-3-ylamino) pyrazine-2-carbonitrile] | 95% | 100% | 6 µL/min/mg | 118 µL/min/mg | 44 µL/min/mg | 21.3 µM (≈ 8.21 µg/mL) | 0.933 nM |
| N#Cc1cnc(Nc2cc(-c3ccccc3O[C@H]3CC[C@@H](N)CC3)on2)cn1 [Compound 1.15, 5-(5-(2-((1s,4s)-4-aminocyclohexyloxy)phenyl)isoxazol-3-ylamino) pyrazine-2-carbonitrile] | 39% | 79% | 12 µL/min/mg | 25 µL/min/mg | 33 µL/min/mg | 100 µM (≈ 37.6 µg/mL) |  |
| N#Cc1cnc(Nc2cc(-c3ccccc3OC3CCNC3)on2)cn1 (stereo not drawn) [Compound 1.14, 5-(5-(2-(pyrrolidin-3-yloxy)phenyl)isoxazol-3-ylamino) pyrazine-2-carbonitrile] | 37% | 60% | 34 µL/min/mg | 56 µL/min/mg | 23 µL/min/mg | 39.6 µM (≈ 13.8 µg/mL) |  |
| CN1CCCC(COc2ccccc2-c2cc(Nc3cnc(C#N)cn3)no2)C1 (stereo not drawn) [Compound 1.16, 5-(5-(2-((1-methylpiperidin-3-yl)methoxy)phenyl)isoxazol-3-ylamino) pyrazine-2-carbonitrile] | 9% | 75% | 117 µL/min/mg | 141 µL/min/mg | 138 µL/min/mg | 38.2 µM (≈ 14.9 µg/mL) |  |
| CC(C)N1CC(Oc2ccccc2-c2cc(Nc3cnc(C#N)cn3)no2)C1 [Compound 1.13, 5-(5-(2-(1-isopropylazetidin-3-yloxy)phenyl)isoxazol-3-ylamino) pyrazine-2-carbonitrile] | 15% | 32% | 86 µL/min/mg | 221 µL/min/mg | 84 µL/min/mg | 11.9 µM (≈ 4.48 µg/mL) |  |
| N#Cc1cnc(Nc2cc(-c3ccccc3OC3CC(N)C3)on2)cn1 (stereo not drawn) [Compound 1.20, 5-(5-(2-(3-aminocyclobutoxy)phenyl)isoxazol-3-ylamino) pyrazine-2-carbonitrile] | 60.2% | 91.9% | 47 µL/min/mg | 86 µL/min/mg | 46 µL/min/mg | 29.4 µM (≈ 10.2 µg/mL) |  |
| N#Cc1cnc(Nc2cc(-c3ccccc3OCC3CCNC3)on2)cn1 (stereo not drawn) [Compound 1.23, 5-(5-(2-(pyrrolidin-3-ylmethoxy)phenyl)isoxazol-3-ylamino) pyrazine-2-carbonitrile] | 82% | 99% | 37 µL/min/mg | 52 µL/min/mg | 50 µL/min/mg | 46.6 µM (≈ 16.9 µg/mL) |  |
| N#Cc1cnc(Nc2cc(-c3cc4ccccc4cc3OCC3CCNC3)[nH]n2)cn1 (stereo not drawn) [Compound 2.4, 5-(5-(3-(pyrrolidin-3-ylmethoxy)naphthalen-2-yl)-1H-pyrazol-3-ylamino) pyrazine-2-carbonitrile] | 70% | 97% | 33 µL/min/mg | 142 µL/min/mg | 94 µL/min/mg | 7.77 µM (≈ 3.2 µg/mL) | 2.34 nM |
| N#Cc1cnc(Nc2cc(-c3ccccc3OCCCCN)on2)cn1 [Compound 1.6, 5-(5-(2-(4-aminobutoxy)phenyl)isoxazol-3-ylamino) pyrazine-2-carbonitrile] | 71% | 91% | 63 µL/min/mg | 63 µL/min/mg | 118 µL/min/mg | 42.8 µM (≈ 15 µg/mL) | 12.3 nM |
| COc1ccccc1-c1cc(Nc2cnc(C#N)cn2)no1 [Compound 1.11, 5-(5-(2-methoxyphenyl)isoxazol-3-ylamino) pyrazine-2-carbonitrile] | 12% | 36% | 140 µL/min/mg | 382 µL/min/mg | 79 µL/min/mg | 14 µM (≈ 4.11 µg/mL) |  |
| N#Cc1cnc(Nc2cc(-c3cc4ccccc4cc3OCCN)[nH]n2)cn1 [Compound 2.6, 5-((5-(3-(2-aminoethoxy)naphthalen-2-yl)-1H-pyrazol-3-yl)amino) pyrazine-2-carbonitrile] | 61% | 90% | 3 µL/min/mg | 153 µL/min/mg | 58 µL/min/mg | 18.8 µM (≈ 6.98 µg/mL) | 15.7 nM |
| N#Cc1cnc(Nc2cc(-c3cc4ccccc4cc3OCC3CNCCO3)[nH]n2)cn1 (stereo not drawn) [Compound 2.3, 5-(5-(3-(morpholin-2-ylmethoxy)naphthalen-2-yl)-1H-pyrazol-3-ylamino) pyrazine-2-carbonitrile] | 41% | 81% | 26 µL/min/mg | 85 µL/min/mg | 39 µL/min/mg | 39.7 µM (≈ 17 µg/mL) | 8.15 nM |
| CCC(C)N1CC(Oc2ccccc2-c2cc(Nc3cnc(C#N)cn3)no2)C1 (stereo not drawn) [Compound 1.18, 5-(5-(2-(1-sec-butyl-azetidin-3-yloxy)phen-yl)isoxazol-3-ylamino)-pyrazine-2-carbonitrile] | 4% | 28% | 145 µL/min/mg | 297 µL/min/mg | 130 µL/min/mg | 48 µM (≈ 18.7 µg/mL) |  |
| N#Cc1cnc(Nc2cc(-c3cc4ccccc4cc3OCC3CNC3)[nH]n2)cn1 [Compound 2.2, 5-(5-(3-(azetidine-3-ylmethoxy)naphthalen-2-yl)-1H-pyrazol-3-ylamino) pyrazine-2-carbonitrile] | 80% | 96% | 21 µL/min/mg | 153 µL/min/mg | 45 µL/min/mg | 41.8 µM (≈ 16.6 µg/mL) | 4.14 nM |
| N#Cc1cnc(Nc2cc(-c3ccccc3OC3CNC3)on2)cn1 [Compound 1.4, 5-(5-(2-(azetidin-3-yloxy)phenyl)isoxazol-3-ylamino) pyrazine-2-carbonitrile] | 7% | 54% | 52 µL/min/mg | 66 µL/min/mg | 27 µL/min/mg | 100 µM (≈ 33.4 µg/mL) | 86.4 nM |

Source: patent US20250346587A1, “NITROGEN-CONTAINING FIVE-MEMBERED HETEROCYCLIC DERIVATIVES AS CHECKPOINT KINASE 1 INHIBITOR AND USES THEREOF” (SPEROGENIX THERAPEUTICS LIMITED, priority 2022, published 2025)
